Patent US7993822B2, “Aging biomarker” (Vlaams Interuniversitair Instituut Voor Biotechnologie VZW, priority 2004, dated 2011)

Assays:
rat [1] = assay: Biochemical assay in serum (ALAT, ASAT, TBil) of CCl4 exposed rats, with or without Interferon-γ co-treatment; type: in vivo, rat (Wistar)
Excerpt: (§1) The repeated administration of CCl4 is widely employed as an animal model of human hepatic fibrosis/cirrhosis. In order to evaluate whether the sugar marker has high predictive values for the liver damage, we tested N-glycan profiling on the CCl4 treated, co-treated with INF-γ and control rat groups (Wistar). Take into account that N-glycosylation in animals is species-specific, we therefore profiled the N-linked glycan to get a fingerprinting in rat serum. […] N-glycan peaks of P1, P3, P5, P6, P7, P9 are consistent with that of human. However, four peaks (rP2, rP4, rP8 and rP10) are rat-specific N-linked sugars.
Moreover, the rat serum alanine aminotransferase activity (ALAT), aspartate aminotransferase activity (ASAT) and total bilirubin concentration (TBil) were analysed using routine photometric tests on a Hitachi 747 analyser (Boehringer Mannheim GmbH, Diagnostica) for subsequent assessment of hepatic injury and liver function, respectively.

rat [2] = assay: Serum N-glycan profile of rats treated with CCl4 and co-treated with Interferon-γ; type: in vivo, rat (Wistar)
Description: The glycoproteins were denatured by addition of at least 2 volumes RCM buffer (8 M urea, 360 mM Tris, pH 8.6, 3.2 mM EDTA) to each sample in a final volume of at least 50 μl, and the samples were then placed at 50° C. for 1 h. The N-linked glycans present on the serum proteins in 5 μl of serum were released after binding the protein to an Immobilon P-lined 96-well plate. They were then derivatized with APTS (Molecular Probes, Eugene, Calif., USA) and analyzed on an ABI 377A DNA sequencer (Applied Biosystems).
as §1

[3] = rat, repeated administration of CCl4, Week 12, vs control group
[4] = CCl4 treated rat co-treated with INF-γ, Week 12, vs CCl4 group

Row | Molecule | serum alanine aminotransferase activity (ALAT) (rat [1]; [3]) | serum aspartate aminotransferase activity (ASAT) (rat [1]; [3]) | total bilirubin concentration (TBil) (rat [1]; [3]) | trends of six serum N-glycan peaks (rat [2]; CCl4 treated rat group compared to control group) | N-glycan profile between CCl4 group and control group (rat [2]; rat, Week 9, peaks P4 and P5 even in Week 6) | liver damage caused by CCl4 treatment (rat [1]; CCl4 treated rat co-treated with INF-γ, Week 12) | serum ALAT level (rat [1]; [4]) | serum ASAT level (rat [1]; [4]) | serum bilirubin level (rat [1]; [4]) | changes of serum N-glycan peaks (rat [2]; INF-γ co-treated group compared to CCl4 group)
1 | ClC(Cl)(Cl)Cl [CCl4] | significantly raised | significantly raised | significantly raised | either increased or decreased | different trends |  |  |  |  | 
2 | Interferon-γ (protein, UniProt P01581 23-156, looked up, Interferon-γ co-treatment of CCl4 treated rats) Interferon gamma: QGTLIESLESLKNYFNSSSMDAMEGKSLLLDIWRNWQKDGNTKILESQIISFYLRLFEVLKDNQAISNNISVIESHLITNFFSNSKAKKDAFMSIAKFEVNNPQIQHKAVNELIRVIHQLSPESSLRKRKRSRC |  |  |  |  |  | partially protected | decreasing levels | decreasing levels | decreasing levels | less slop changes than CCl4-group
